{"source": "patent US12662491B2", "about": "(Redona Therapeutics, Inc., priority 2020, dated 2026)", "target": "T1, Zcchc11 enzyme (Homo sapiens, UniProt Q5TAX3)", "T1 construct": "made in house; host or cells: HEK293 cells (Zcchc11); E. coli Rosetta II (LIN28A)", "T1 sequence (Q5TAX3 212-1420)": "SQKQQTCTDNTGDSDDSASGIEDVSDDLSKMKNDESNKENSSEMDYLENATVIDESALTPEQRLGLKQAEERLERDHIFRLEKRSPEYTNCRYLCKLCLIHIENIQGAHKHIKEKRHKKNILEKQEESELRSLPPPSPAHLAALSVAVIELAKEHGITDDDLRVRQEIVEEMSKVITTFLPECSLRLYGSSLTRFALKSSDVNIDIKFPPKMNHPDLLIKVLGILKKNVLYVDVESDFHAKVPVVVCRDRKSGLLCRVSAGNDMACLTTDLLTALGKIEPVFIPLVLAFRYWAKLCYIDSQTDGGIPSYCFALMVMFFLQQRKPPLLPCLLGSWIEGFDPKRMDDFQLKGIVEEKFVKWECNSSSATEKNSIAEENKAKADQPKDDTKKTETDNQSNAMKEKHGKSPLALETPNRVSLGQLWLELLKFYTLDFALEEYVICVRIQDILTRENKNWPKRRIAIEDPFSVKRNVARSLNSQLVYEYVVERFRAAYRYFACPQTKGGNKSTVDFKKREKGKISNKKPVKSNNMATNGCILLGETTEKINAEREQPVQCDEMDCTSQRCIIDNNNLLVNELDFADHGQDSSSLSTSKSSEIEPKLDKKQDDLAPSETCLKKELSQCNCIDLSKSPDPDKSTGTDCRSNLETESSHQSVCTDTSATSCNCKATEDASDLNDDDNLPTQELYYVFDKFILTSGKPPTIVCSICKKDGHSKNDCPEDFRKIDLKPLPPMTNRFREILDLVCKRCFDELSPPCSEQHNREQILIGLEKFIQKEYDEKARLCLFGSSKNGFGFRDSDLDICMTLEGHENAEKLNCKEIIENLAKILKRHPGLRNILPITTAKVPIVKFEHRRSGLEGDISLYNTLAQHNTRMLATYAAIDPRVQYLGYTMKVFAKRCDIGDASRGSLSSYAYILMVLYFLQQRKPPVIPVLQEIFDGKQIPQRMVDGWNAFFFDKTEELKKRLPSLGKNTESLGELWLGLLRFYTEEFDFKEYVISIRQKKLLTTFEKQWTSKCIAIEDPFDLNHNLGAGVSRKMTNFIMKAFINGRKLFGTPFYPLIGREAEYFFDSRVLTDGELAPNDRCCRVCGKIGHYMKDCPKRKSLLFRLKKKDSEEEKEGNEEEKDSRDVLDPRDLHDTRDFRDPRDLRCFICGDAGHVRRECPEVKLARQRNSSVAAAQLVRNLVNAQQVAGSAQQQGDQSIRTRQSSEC", "experiment": "TUTase assay (Zcchc11 assay, Lin28a-dependent polyuridylation of pre-let-7)", "type": "biochemical", "details": "read-out: Potency Lin28a-dep Z11 IC50", "method_in_brief": "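Potency is measured as inhibition of LIN28A-driven U-tail addition to 2 nM pre-let-7 by 0.2 nM HEK293-derived Zcchc11 fragment with 5 uM UTP at room temperature. Tail growth appears as fluorescein quenching by an annealing rhodamine-A20 probe.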", "key": {"[1]": {"details": "Lin28a-dependent Zcchc11 (Z11) TUTase assay"}, "[2]": {"details": "Lin28a-dependent Zcchc11 (Z11) TUTase activity"}}, "note": "Read-outs that look alike come from different tables or passages of the source."}
{"smiles": "CN1CCn2nc(-n3cc(C(=O)O)c(=O)c4cc(Cl)c(N5CCC[C@@H]5COc5ncccc5Cl)cc43)cc2C1", "note": "[Example 508, (R)-6-chloro-7-(2-(((3-chloropyridin-2-yl)oxy)methyl)pyrrolidin-1-yl)-1-(5-methyl-4,5,6,7-tetrahydropyrazolo [1,5-a]pyrazin-2-yl)-4-oxo-1,4-dihydroquinoline-3-carboxylic acid]", "values": [{"measurement": "IC50", "setting": "[1]", "result": "≤ 1000", "unit": "nM"}]}
{"smiles": "CN(C)C1CN(c2ccc(-n3cc(C(=O)O)c(=O)c4cc(Cl)c(N5Cc6cccnc6[C@@H]5COc5ncccc5Cl)cc43)cn2)C1", "note": "[Example 597, (R)-6-chloro-7-(7-(((3-chloropyridin-2-yl)oxy)methyl)-5,7-dihydro-6H-pyrrolo[3,4-b]pyridin-6-yl)-1-(6-(3-(dimethylamino)azetidin-1-yl)pyridin-3-yl)-4-oxo-1,4-dihydroquinoline-3-carboxylic acid]", "values": [{"measurement": "IC50", "setting": "[1]", "result": "≤ 1000", "unit": "nM"}]}
{"smiles": "CN(C)C1CN(c2ccc(-n3cc(C(=O)O)c(=O)c4cc(Cl)c(N5CCC[C@@H]5COc5ncc6nc[nH]c6c5Cl)cc43)cn2)C1", "note": "[Compound 255, 6-chloro-7-[(2R)-2-[({7-chloro-1H-imidazo [4,5-c]pyridin-6-yl}oxy)methyl]pyrrolidin-1-yl]-1-{6-[3-(dimethyl-amino)azetidin-1-yl]pyridin-3-yl}-4-oxoquinoline-3-carboxylic acid]", "values": [{"measurement": "IC50", "setting": "[2]", "result": "≤ 1000", "unit": "nM"}]}
{"smiles": "COCCN(C)C1CN(c2ccc(-n3cc(C(=O)O)c(=O)c4cc(F)c(N5CCC[C@@H]5COc5nc(OC)ccc5Cl)cc43)cn2)C1", "note": "[Compound 302, (R)-7-(2-(((3-chloro-6-methoxy-pyridin-2-yl)oxy)methyl)pyrrolidin-1-yl)-6-fluoro-1-(6-(3-((2-methoxyethyl) (methyl)amino)azetidin-1-yl)pyridin-3-yl)-4-oxo-1,4-dihydro-quinoline-3-carboxylic acid]", "values": [{"measurement": "IC50", "setting": "[2]", "result": "≤ 1000", "unit": "nM"}]}
{"smiles": "COCCN(C)C1CN(c2ccc(-n3cc(C(=O)O)c(=O)c4cc(Cl)c(N5CCC[C@@H]5COc5ncccc5Cl)cc43)cn2)C1", "note": "[Example 495, (R)-6-chloro-7-(2-(((3-chloropyridin-2-yl)oxy)methyl)pyrrolidin-1-yl)-1-(6-(3-((2-methoxyethyl) (methyl)amino)azetidin-1-yl)pyridin-3-yl)-4-oxo-1,4-dihydroquinoline-3-carboxylic acid]", "values": [{"measurement": "IC50", "setting": "[1]", "result": "≤ 1000", "unit": "nM"}]}
{"smiles": "Cn1cc(-n2cc(C(=O)O)c(=O)c3cc(F)c(N4CCC[C@@H]4COc4ncccc4F)cc32)cn1", "note": "(racemic) [Compound 290, rac-(R)-6-fluoro-7-(2-(((3-fluoropyridin-2-yl)oxy)methyl)pyrrolidin-1-yl)-1-(1-methyl-1H-pyrazol-4-yl)-4-oxo-1,4-dihydro-quinoline-3-carboxylic acid]", "values": [{"measurement": "IC50", "setting": "[2]", "result": "≤ 1000", "unit": "nM"}]}
{"smiles": "CC(=O)Nc1ccc(-n2cc(C(=O)O)c(=O)c3cc(F)c(N4CCC[C@@H]4COc4ccccn4)cc32)cc1", "note": "[Example 370, (R)-1-(4-acetamidophenyl)-6-fluoro-4-oxo-7-(2-((pyridin-2-yloxy)methyl)pyrrolidin-1-yl)-1,4-dihydro-quinoline-3-carboxylic acid]", "values": [{"measurement": "IC50", "setting": "[1]", "result": "≤ 1000", "unit": "nM"}]}
{"smiles": "CC(=O)N1Cc2ccc(-n3cc(C(=O)O)c(=O)c4cc(Cl)c(N5CCC[C@@H]5COc5ncccc5Cl)cc43)cc2C1", "note": "[Compound 237, 1-(2-acetyl-1,3-dihydro-isoindol-5-yl)-6-chloro-7-[(2R)-2-[[(3-chloropyridin-2-yl)oxy]methyl]pyrrolidin-1-yl]-4-oxoquinoline-3-carboxylic acid]", "values": [{"measurement": "IC50", "setting": "[2]", "result": "≤ 1000", "unit": "nM"}]}
{"smiles": "CN1CC2(C1)CN(c1ccc(-n3cc(C(=O)O)c(=O)c4cc(Cl)c(N5CCC[C@@H]5COc5ncccc5Cl)cc43)cn1)C2", "note": "[Example 520, (R)-6-chloro-7-(2-(((3-chloropyridin-2-yl)oxy)methyl)pyrrolidin-1-yl)-1-(6-(6-methyl-2,6-diazaspiro[3.3]heptan-2-yl)pyridin-3-yl)-4-oxo-1,4-dihydroquinoline-3-carboxylic acid]", "values": [{"measurement": "IC50", "setting": "[1]", "result": "≤ 1000", "unit": "nM"}]}
{"smiles": "COCCN(C)C1CN(c2ccc(-n3cc(C(=O)O)c(=O)c4cc(F)c(N5CC(c6cccnc6)C[C@@H]5COc5ncccc5Cl)cc43)cn2)C1", "note": "(stereo partly drawn) [Compound 326, 7-[(2R)-2-[[(3-Chloropyridin-2-yl)oxy]methyl]-4-(pyridin-3-yl)pyrrolidin-1-yl]-6-fluoro-1-(6-[3-[(2-methoxyethyl) (methyl)amino]azetidin-1-yl]pyridin-3-yl)-4-oxoquinoline-3-carboxylic acid]", "values": [{"measurement": "IC50", "setting": "[2]", "result": "≤ 1000", "unit": "nM"}]}
{"smiles": "CN1CCC(n2cc(C(=O)O)c(=O)c3cc(Cl)c(N4CCC[C@@H]4COc4ncccc4Cl)cc32)C1", "note": "(stereo partly drawn) [Example 461, 6-chloro-7-((R)-2-(((3-chloropyridin-2-yl)oxy)methyl)pyrrolidin-1-yl)-1-(1-methyl-pyrrolidin-3-yl)-4-oxo-1,4-dihydroquinoline-3-carboxylic acid]", "values": [{"measurement": "IC50", "setting": "[1]", "result": "1000 to 10000", "unit": "nM"}]}
{"smiles": "O=C(O)c1cn(-c2ccccc2CO)c2cc(N3CCC[C@@H]3COc3ccccn3)c(F)cc2c1=O", "note": "[Compound 160, (R)-6-fluoro-1-(2-(hydroxy-methyl)phenyl)-4-oxo-7-(2-((pyridin-2-yloxy)methyl)pyrrolidin-1-yl)-1,4-dihydro-quinoline-3-carboxylic acid]", "values": [{"measurement": "IC50", "setting": "[2]", "result": "1000 to 10000", "unit": "nM"}]}
{"smiles": "O=C(O)c1cn(C2CC(CO)C2)c2cc(N3CCC[C@@H]3COc3ccccn3)c(F)cc2c1=O", "note": "(stereo partly drawn) [Example 453, (R)-6-fluoro-1-(3-(hydroxymethyl)cyclobutyl)-4-oxo-7-(2-((pyridin-2-yloxy)methyl)pyrrolidin-1-yl)-1,4-dihydroquinoline-3-carboxylic acid]", "values": [{"measurement": "IC50", "setting": "[1]", "result": "10000 to 50000", "unit": "nM"}]}
{"smiles": "CC1(n2cc(C(=O)O)c(=O)c3cc(Cl)c(N4CCC[C@@H]4CN4CCc5cccnc54)cc32)CC1", "note": "[Compound 115, (R)-6-chloro-7-(2-((2,3-dihydro-1H-pyrrolo[2,3-b]pyridin-1-yl)methyl)pyrrolidin-1-yl)-1-(1-methylcyclo-propyl)-4-oxo-1,4-dihydro-quinoline-3-carboxylic acid]", "values": [{"measurement": "IC50", "setting": "[2]", "result": "1000 to 10000", "unit": "nM"}]}
{"smiles": "CN(C)C1CN(c2ncc(-n3cc(C(=O)O)c(=O)c4cc(Cl)c(N5CCC[C@@]5(C)COc5ncccc5Cl)nc43)cn2)C1", "note": "[Example 623, (S)-6-chloro-7-(2-(((3-chloropyridin-2-yl)oxy)methyl)-2-methylpyrrolidin-1-yl)-1-(2-(3-(dimethylamino)azetidin-1-yl)pyrimidin-5-yl)-4-oxo-1,4-dihydro-1,8-naphthyridine-3-carboxylic acid]", "values": [{"measurement": "IC50", "setting": "[1]", "result": "≤ 1000", "unit": "nM"}]}
{"smiles": "COc1ccc(C2C[C@H](COc3nc(OC)ccc3Cl)N(c3cc4c(cc3Cl)c(=O)c(C(=O)O)cn4-c3ccc(N4CC(N(C)C)C4)nc3)C2)cn1", "note": "(stereo partly drawn) [Example 636, 6-chloro-7-((2R)-2-(((3-chloro-6-methoxypyridin-2-yl)oxy)methyl)-4-(6-methoxypyridin-3-yl)pyrrolidin-1-yl)-1-(6-(3-(dimethylamino)azetidin-1-yl)pyridin-3-yl)-4-oxo-1,4-dihydroquinoline-3-carboxylic acid]", "values": [{"measurement": "IC50", "setting": "[1]", "result": "≤ 1000", "unit": "nM"}]}
{"smiles": "CN(C)C1CN(c2ccc(-n3cc(C(=O)O)c(=O)c4cc(F)c(N5CCC[C@H]5COc5ncccc5Cl)cc43)cn2)C1", "note": "[Example 670, (S)-7-(2-(((3-chloropyridin-2-yl)oxy)methyl)pyrrolidin-1-yl)-1-(6-(3-(dimethylamino)azetidin-1-yl)pyridin-3-yl)-6-fluoro-4-oxo-1,4-dihydroquinoline-3-carboxylic acid]", "values": [{"measurement": "IC50", "setting": "[1]", "result": "1000 to 10000", "unit": "nM"}]}
{"smiles": "COCCN1CC(n2cc(C(=O)O)c(=O)c3cc(Cl)c(N4CCC[C@@H]4COc4ncccc4Cl)cc32)C1", "note": "[Example 470, (R)-6-chloro-7-(2-(((3-chloropyridin-2-yl)oxy)methyl)pyrrolidin-1-yl)-1-(1-(2-methoxy-ethyl)azetidin-3-yl)-1-(1-(2-methoxyethyl)azetidin-3-yl)-4-oxo-1,4-dihydroquinoline-3-carboxylic acid]", "values": [{"measurement": "IC50", "setting": "[1]", "result": "1000 to 10000", "unit": "nM"}]}
{"smiles": "O=C(O)c1cn(-c2ccc(O)cc2)c2cc(N3CCC[C@@H]3Cn3ccc4ncccc43)c(F)cc2c1=O", "note": "[Example 11, (R)-7-(2-((1H-pyrrolo[3,2-b]pyridin-1-yl)methyl)pyrroledin-1-yl)-6-fluoro-1-(4-hydroxyphenyl)-4-oxo-1,4-dihydroquinoline-3-carboxylic acid]", "values": [{"measurement": "IC50", "setting": "LIN28A 10 nM, Zcchc11 0.2 nM, 5′-fluorescein pre-let-7 miRNA 2 nM, UTP 5 uM, room temperature, 30 minutes pre-incubation", "result": "≤ 1000", "unit": "nM"}]}
